Experiments:
[1] = target: recombinant thrombin (Homo sapiens, UniProt P00734); experiment: Fluorescence dequenching cleavage assay with recombinant thrombin; format: biochemical; details: fluorescence at 535 nm, triplicate
Source text: To assess the solubility, stability, and activity of our nanosensors in CAGE, we conjugated a thrombin substrate (–GGfPRSGGG–) to 40 kDa PEG nanoparticles at an 8:1 substrate:nanoparticle ratio. The substrates were flanked by 5‐carboxyfluorescein (5‐FAM) and a Förster resonance energy transfer quencher molecule (CPQ2) in close proximity, such that proteolytic cleavage would result in fluorescence signal (nanoparticle was denoted as TDN‐qFAM, Figure 1A). […] In addition, the colloidal stability of TDN‐qFAM was assessed by the absorption spectrum of TDN‐qFAM in the presence and absence of CAGE after 24 h of room temperature storage (Figure 1C). […] We then investigated whether the presence of CAGE components influenced the stability of the peptide substrate and the activity of thrombin against TDN‐qFAM. […] However, upon stepwise dilution of CAGE with phosphate buffered saline (PBS), the functionality of TDN‐qFAM against thrombin cleavage was improved.
Figure 1 A) Chemical components of CAGE ionic liquid and schematic representation of TDN‐qFAM nanoparticles with thrombin substrate sequence. B) Dynamic light scattering and C) absorbance spectra of TDN‐qFAM in PBS and CAGE solutions. […]) Fluorescence dequenching experiment for enzyme cleavage kinetics in the presence (empty circles) and absence (full circles) of recombinant thrombin in the TDN‐qFAM/CAGE solution. […]

[2] = target: T1, endogenous thrombin (Mus musculus, UniProt P19221); experiment: Cleavage kinetics in mouse serum at different CAGE concentrations; format: biochemical; details: 37 °C, fluorescence
T1 construct: The cleavage study was carried out in mouse serum obtained from Sigma Aldrich; tissue Sigma Aldrich; host or cells: mouse serum

[3] = Dynamic light scattering size analysis of nanosensors in CAGE; format: physicochemical
Source text: (§1) To assess the solubility, stability, and activity of our nanosensors in CAGE, we conjugated a thrombin substrate (–GGfPRSGGG–) to 40 kDa PEG nanoparticles at an 8:1 substrate:nanoparticle ratio. The substrates were flanked by 5‐carboxyfluorescein (5‐FAM) and a Förster resonance energy transfer quencher molecule (CPQ2) in close proximity, such that proteolytic cleavage would result in fluorescence signal (nanoparticle was denoted as TDN‐qFAM, Figure 1A). […] In addition, the colloidal stability of TDN‐qFAM was assessed by the absorption spectrum of TDN‐qFAM in the presence and absence of CAGE after 24 h of room temperature storage (Figure 1C). […]
(§2) The CAGE and TDNs coformulation was prepared by addition of 1 mL of CAGE onto 1 mg of conjugated PEG powder, followed by iterative short mixing and ultrasonication steps until a clear solution was observed. […] Size analysis was performed in dynamic light scattering (ZetaSizer), and absorbance spectra were obtained in Tecan Spectrophotometer. For in vitro cleavage assays, recombinant thrombin (10 × 10^−9 M working concentration) was mixed with TDN‐Q in CAGE (30%) solution (10 × 10^−6 M by peptide), and cleavage was monitored by fluorescence at 535 nm of dequenched 5‐carboxyfluorescein (5‐FAM). […]

[4] = Ex vivo skin penetration, Franz diffusion cell, porcine skin; format: in vitro ADME; details: 300 µL, 37 °C, 24 h
Experimental: Porcine skin samples were placed on Franz diffusion cells, and the diffusion of TDN‐qFAM nanoparticles was tested with different concentrations of CAGE present in the formulation.
Figure 5 A) Confocal microscopy image of a paraffin‐embedded porcine skin section after 24 h of topical administration of TDN‐qFAM in 100% CAGE. Left: bright field; right: fluorescence image. Scale bar: 200 µm. B) Quantitative results of nanoparticles found in ex vivo porcine skin layers using Franz diffusion cell set‐up with different CAGE concentrations. (mean ± s.d., n = 3 independent skin slices).
The skin penetration studies were undertaken using porcine skin in Franz diffusion cells, as described previously in full.^[ [23] ^] Briefly, thawed porcine skin (CBSET, Lexington MA) or mouse skin removed from Swiss Webster strain was placed in a diffusion cell with the stratum corneum facing upwards. The acceptor component of the cell was filled with PBS and equipped with a magnetic stirrer bar. 300 µL was placed on top of the skin, ensuring full coverage. The diffusion cell was placed on a stirrer plate at 37 °C for 24 h, at which point the skin was removed and the surface washed gently with PBS. For quantitative analysis, the stratum corneum was removed by tape stripping (ten layers), the epidermis was separated from the dermis with a scalpel, and a 4 mm punch was used thrice to remove a third of the dermis (by area). The tissue was then placed into a 50% methanol/PBS mixture, and left to shake overnight at RT to extract the drug. 100 µL of the extracted fluid was then placed into a black Corning 96‐well plate and analyzed using a i3 SpectraMax plate reader, with excitation wavelength of 750 nm and an emission wavelength of 775 nm. For the confocal microscopy, the skin was affixed to a cryostat stage with fixing compound and 20 µm slices were taken using a cryostat (Leica CM1950, Leica, Germany). The slices of skin were placed on negatively charged slides (Fisher Scientific, Pittsburgh, PA, USA) and imaged using a confocal microscope (Upright Zeiss LSM 710 NLO) with a 10× air objective.

[5] = Colloidal stability by absorption spectrum after storage; format: physicochemical; details: presence and absence of CAGE; 24 h room temperature storage; absorbance spectrum
Source text: as §1, §2

[6] = Ex vivo skin penetration, Franz diffusion cell, mouse skin; format: in vitro ADME, mouse (Swiss Webster); details: 37 °C, 24 h, fluorescence, n = 3 skin samples
Experimental: Next, we validated the skin penetration of the nanosensors by coformulating unquenched, 5‐FAM labelled, thrombin substrate‐conjugated PEG nanoparticles (TDN‐FAM, Table S1, Supporting Information) and 30% CAGE solution. Ex vivo conditions were established by incubating TDN‐FAM/CAGE with mouse skin samples that were stabilized in a Franz diffusion cell set‐up.^[ [14], [15] ^] Three main layers of skin samples, namely stratum corneum, viable epidermis, and dermis, as well as the PBS solution underneath the skin (acceptor solution), were collected, and nanosensor concentration was quantified via fluorescence spectroscopy.
Figure 2 A) Quantification of TDN‐FAM extracted from different layers of mouse skin via fluorescence readout. SC: Stratum Corneum. […]
The skin penetration studies were undertaken using porcine skin in Franz diffusion cells, as described previously in full.^[ [23] ^] […] For quantitative analysis, the stratum corneum was removed by tape stripping (ten layers), the epidermis was separated from the dermis with a scalpel, and a 4 mm punch was used thrice to remove a third of the dermis (by area). […] 100 µL of the extracted fluid was then placed into a black Corning 96‐well plate and analyzed using a i3 SpectraMax plate reader, with excitation wavelength of 750 nm and an emission wavelength of 775 nm. […]

[7] = system: acute pulmonary embolism mouse model; experiment: Urinary reporter detection of thrombosis in thromboplastin-injected acute pulmonary embolism mouse model; format: in vivo, Swiss Webster mice; details: for ROC AUC: n = 5 per group
Source text: Next, we sought to assess whether transdermally delivered nanosensors could detect disease in this model. Thrombin substrate flanked by near‐IR dye, Cy7, was conjugated to PEG nanoparticles (TDN‐Cy7), were solvated in 30% CAGE and administered topically to Swiss Webster mice. The TDN‐Cy7 nanoparticles were designed such that cleavage of the thrombin substrate would liberate a renally clearable fragment with Cy7 that could enable quantification in the urine by fluorescence. Concomitant quantification of plasma‐borne TDN‐Cy7 was performed to normalize the urine signal in order to mitigate the mouse‐to‐mouse variation that may arise due to the heterogeneous skin conditions present across individual subjects. Thromboplastin was intravenously administered to mice at different time points after topical administration of CAGE/TDN solution on the dorsal skin. Urine collection was performed 30 min after thromboplastin injection, and fluorescence measurement was carried out to detect reporter peptides in the urine. […] These finding indicate that topical administration with CAGE achieves circulatory delivery of nanosensors that enable sustained, noninvasive monitoring of thromboembolism in vivo as opposed to bolus injection into the blood.
Figure 4 A) Urinary reporter concentrations relative to plasma TDN‐Cy7 concentrations for thromboplastin‐injected (Thrombosis) and healthy control mice at different time points after nanosensor administration (mean ± s.d., n = 5 mice per group; *P < 0.05 and **P < 0.01, two‐tailed Mann–Whitney's […]). […] C) Urinary reporter concentrations in healthy versus thrombosis mice 6 h after intravenous injection of TDN‐Cy7 (mean ± s.d., n = 5 mice per group; ns: not significant). D) ROC curve calculated from data at panel (C) (AUC = 0.60).
For urine detection of thrombosis, 10 µL of CAGE (30%) containing TDN‐Cy7 nanosensor (4nmoles by peptide) was administered onto previously shaved dorsal skin of Swiss Webster mice, which were subsequently returned to their cages. At different time points postadministration, thromboplastin (0.75 µL g^−1 bodyweight of 4 mg mL^−1 stock in PBS) was injected intravenously, and both urine and blood (retroorbital draw) were collected 30 min p.i. Plasma is collected similar to the pharmacokinetic study and both urine and plasma were stored at −80 °C. Cleaved peptide reporters in the urine was quantified with fluorescence of Cy7 (Excitation 750 nm, emission 790 nm). Plasma levels of TDN‐Cy7 were similarly quantified using fluorescence and used for normalizing the urine signals.

## 5FAM-GGfPRSGGGK(CPQ2)-(EG)2-C-[8armPEG] [TDN‐qFAM, Quenched thrombosis detecting nanosensors: 5-FAM/CPQ2-flanked thrombin substrate peptide conjugated to 40 kDa 8-arm PEG nanoparticles]
[1]; 30% CAGE alone, no thrombin
  cleavage in the absence of recombinant enzyme: no cleavage was observed
[1]; 30% CAGE, thrombin 10 × 10^-9 M, nanosensor 10 × 10^-6 M by peptide
  cleavage (fluorescence dequenching) with recombinant thrombin: clear cleavage profile with gradual increase in fluorescence intensity
[2]; 30% CAGE, n = 3 measurements
  endogenous thrombin activity against nanosensor in mouse serum: partially hindered
[2]; stepwise dilution of CAGE with PBS (5%, 1%, 0.1%, 0%), n = 3
  functionality against thrombin cleavage in mouse serum on dilution of CAGE: improved
[3]; 30% CAGE solution vs PBS, ZetaSizer
  aggregation associated size increase (>100 nm), dynamic light scattering: did not exhibit any significant aggregation associated size increase
[3]; CAGE vs PBS, dynamic light scattering
  mean hydrodynamic size when dissolved in CAGE: slight increase
[4]; 30% CAGE, fluorescence, n = 3 skin slices
  penetration into porcine skin: slight increase in penetration
[4]; in PBS, acceptor PBS, fluorescence
  amount transported into porcine skin: negligible amount
[4]; undiluted (100%) CAGE, fluorescence and confocal microscopy, n = 3 skin slices
  penetration through porcine skin: dramatically improved penetration
[5]
  absorption maximum at 495 nm (5-FAM) after storage: virtually unchanged

## 5FAM-GGfPRSGGGK-(EG)2-C-[8armPEG] [TDN‐FAM, Unquenched 5-carboxyfluorescein conjugated thrombosis detecting nanosensors on 8-arm PEG]
[6]; 30% CAGE vs PBS, 300 µL, acceptor PBS
  signal in dermis layer and acceptor solution: markedly increased signal
[6]; 50% CAGE vs 30% CAGE
  recovery from dermis and acceptor layers: even higher recovery

## Cy7-GGfPRSGGGK-(EG)2-C-[8armPEG] [TDN‐Cy7, Unquenched Cy7 conjugated thrombosis detecting nanosensors on 8-arm PEG]
[7]; 6 h after intravenous injection
  ROC AUC: 0.60
[7]; intravenous injection 6 h before thromboplastin, n = 5
  amount of reporter in urine vs healthy background: not significantly different from healthy background
[7]; topical 30% CAGE, 4 nmoles by peptide, thromboplastin 6 h after administration, urine 30 min later, normalised to plasma, n = 5, P = 0.0079
  urinary reporter signal, diseased vs healthy mice: significantly increased
[7]; topical 30% CAGE, 6 h after nanosensor administration
  ROC AUC: 1.00
[7]; topical 30% CAGE, 12 h after nanosensor administration
  ROC AUC: 1.00
[7]; topical 30% CAGE, 24 h after nanosensor administration
  ROC AUC: 0.96
[7]; topical 30% CAGE, 48 h after nanosensor administration
  ROC AUC: 0.84
[7]; topical 30% CAGE, 72 h after nanosensor administration
  ROC AUC: 0.72
[7]; topical 30% CAGE, thrombosis induced at 12 h, n = 5
  diagnostic power of urinary reporter: retained their diagnostic power
[7]; topical 30% CAGE, thrombosis induced at 24 hours, n = 5
  diagnostic power of urinary reporter: retained their diagnostic power
[7]; topical 30% CAGE, thrombosis induced at 48 hours, n = 5
  discrimination of diseased from healthy mice: could not discriminate diseased from healthy mice
[7]; topical 30% CAGE, thrombosis induced at 72 hours, n = 5
  discrimination of diseased from healthy mice: could not discriminate diseased from healthy mice
